From PubChem BioAssay (NCI)
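Following 48 hours of exposure in 96-well plates, responses at five concentrations were used to interpolate endpoints linearly. At the TGI there is no net growth.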

Tests used:
Experiment in all cases: NCI tumour cell line growth inhibition, 48 h
[1] = system: XF 498 CNS
[2] = system: A549 NSCLC
[3] = system: DLD-1 colon
[4] = system: NCI-H460 lung
[5] = system: SNB-78 CNS
[6] = system: LXFL 529 NSCLC
[7] = system: DMS 273 small cell lung
[8] = system: M19-MEL melanoma
[9] = system: RXF-631 renal
[10] = system: HOP-18 NSCLC
[11] = system: DMS 114 small cell lung
[12] = system: NCI-H522 lung
[13] = system: KM20L2 colon

SMILES	TGI [1] [µM]	TGI [2] [µM]	TGI [3] [µM]	TGI [4] [µM]	TGI [5] [µM]	TGI [6] [µM]	TGI [7] [µM]	TGI [8] [µM]	TGI [9] [µM]	TGI [10] [µM]	TGI [11] [µM]	TGI [12] [µM]	TGI [13] [µM]
Cc1cc([N+](=O)[O-])ccc1Sc1c2ccccc2nc2cc(Cl)ccc12	91.5	> 100	> 100	> 100	> 100	> 100	> 100	> 100	> 100	> 100	52.9	78.7	44.2
COC(=O)CCC(NC(=S)N/N=C/c1ccccn1)C(=O)OC (stereo unspecified)	> 100	> 100	> 100	> 100	> 100	> 100	–	> 100	> 100	> 100	> 100	> 100	> 100
CC(C)(C)OC(=O)N[C@H]1CC(O)c2ccccc2N(CC(=O)O)C1=O (stereo partly specified)	> 100	> 100	> 100	> 100	–	> 100	> 100	> 100	> 100	> 100	> 100	> 100	> 100
NC1=NC2=c3ccccc3=C(c3cnccn3)C2(c2cnccn2)c2ccccc21 (stereo unspecified)	> 100	> 100	> 100	> 100	> 100	–	> 100	> 100	–	> 100	> 100	> 100	> 100
COc1ccccc1C1C(Cl)C(=O)N1n1cnc2ccccc2c1=O (stereo unspecified)	> 100	> 100	> 100	> 100	> 100	> 100	> 100	> 100	–	> 100	> 100	> 100	> 100
Oc1ccc([Te]CCNCC[Te]c2ccc(O)cc2)cc1	39.2	16.6	> 100	33.9	78.6	32	> 100	50.5	90.2	66.5	–	–	55.1
